# Source: ChEMBL document CHEMBL4725493, “Novel 2-Aryloxazoline Compounds Exhibit an Inhibitory Effect on Candida spp., Including Antifungal-Resistant Isolates” (ACS Med Chem Lett, 2020)
# Active and inactive are the calls of the source. No cut-off for these calls is given here.
# Tests used:
# Candida tropicalis = experiment: Antifungal activity against Candida tropicalis ATCC 200956 by CLSI standard M27 broth microdilution method; assay type: functional
# [1] = Selectivity index, ratio of HA50 to human RCB to MIC of antifungal activity against Candida tropicalis ATCC 200956; assay type: toxicity; settings: human red blood cells (RCB)
# Erythrocyte = experiment: Hemolytic activity in human RBC by spectrophotometry; assay type: ADME, cell-based
# [2] = Selectivity index, ratio of CC50 of human HepG2 cells to MIC of antifungal activity against Candida tropicalis ATCC 200956; assay type: toxicity
# HepG2 = experiment: Cytotoxicity against human HepG2 cells assessed as reduction in cell viability by XTT assay; assay type: cell-based
# [Candida] auris [3] = Antifungal activity against Candida auris CBS 10913 by CLSI standard M27 broth microdilution method; assay type: functional; settings: Candidozyma auris
# [Candida] auris [4] = Antifungal activity against Candida auris CBS 12766 by CLSI standard M27 broth microdilution method; assay type: functional; settings: Candidozyma auris
# [5] = Antifungal activity against Candida pseudohaemulonis CBS 10004 by broth microdilution method; assay type: functional; settings: Candidozyma pseudohaemuli
# Candida duobushaemulonii = experiment: Antifungal activity against Candida duobushaemulonis CBS 7799 by CLSI standard M27 broth microdilution method; assay type: functional; settings: Candidozyma duobushaemuli
# Cryptococcus neoformans = experiment: Fungicidal activity against Cryptococcus neoformans ATCC 208821 assessed as loss of fungal growth by CLSI method; assay type: functional, organism-based
# Aspergillus fumigatus = experiment: Antifungal activity against Aspergillus fumigatus ATCC 16913 by CLSI standard M38 broth microdilution method; assay type: functional, organism-based
# Aspergillus niger = experiment: Antifungal activity against Aspergillus niger by CLSI standard M38 broth microdilution method; assay type: functional, organism-based
# Cryptococcus gattii = experiment: Fungicidal activity against Cryptococcus gattii ATCC 56990 assessed as loss of fungal growth by CLSI method; assay type: functional, organism-based; settings: Cryptococcus bacillisporus
SMILES,MIC (Candida tropicalis),selectivity ratio [1],Activity (Erythrocyte),selectivity ratio [2],CC50 (HepG2),MIC ([Candida] auris [3]),MIC ([Candida] auris [4]),MIC [5],MIC (Candida duobushaemulonii),Activity (Cryptococcus neoformans),inhibition (Aspergillus fumigatus),inhibition (Aspergillus niger),Activity (Cryptococcus gattii)
COC(=O)[C@H]1N=C(c2ccc3ccccc3c2O)O[C@H]1C,0.06 µg/mL,≥ 8,> 128 µg/mL,5,84 µg/mL,–,–,–,–,–,–,–,–
C[C@@H]1[C@H](O)[C@@H](C)/C=C/C=C/C=C/C=C/C=C/C=C/C=C/[C@H](O[C@@H]2O[C@H](C)[C@@H](O)[C@H](N)[C@@H]2O)C[C@@H]2O[C@](O)(C[C@@H](O)C[C@@H](O)[C@H](O)CC[C@@H](O)C[C@@H](O)CC(=O)O[C@H]1C)C[C@H](O)[C@H]2C(=O)O [AMPHOTERICIN B],≤ 0.03 µg/mL,≥ 68,17 µg/mL,≥ 16,4 µg/mL,0.5 µg/mL,2 µg/mL,8 µg/mL,4 µg/mL,–,–,–,–
"C[C@@H]1OC(c2cc(Cl)c3ccccc3c2O)=NC1C(=O)Nc1ccccc1NC(=O)[C@@H]1N=C(c2cc(Cl)c3ccccc3c2O)O[C@@H]1C (single isomer, unassigned)",≤ 0.03 µg/mL,≥ 32,> 128 µg/mL,≥ 23,90 µg/mL,–,–,–,–,–,–,–,–
C[C@H]1OC(c2cc(Br)ccc2O)=N[C@H]1C(=O)OCc1ccccc1,≤ 0.03 µg/mL,≥ 128,> 128 µg/mL,≥ 88,88 µg/mL,–,–,–,–,–,–,–,–
C[C@H]1OC(c2ccccc2O)=N[C@H]1C(=O)OCc1ccccc1,≤ 0.03 µg/mL,≥ 32,> 128 µg/mL,≥ 26,102 µg/mL,–,–,–,–,–,–,–,–
C[C@@H]1OC(c2ccc3ccccc3c2O)=N[C@@H]1C(=O)OCc1ccccc1,≤ 0.03 µg/mL,≥ 256,> 128 µg/mL,≥ 176,88 µg/mL,–,–,–,–,–,–,–,–
COc1ccc(O)c(C2=N[C@@H](C(=O)OCc3ccccc3)[C@@H](C)O2)c1,≤ 0.03 µg/mL,≥ 32,> 128 µg/mL,25,100 µg/mL,–,–,–,–,–,–,–,–
"C[C@@H]1OC(c2cc(Br)c3ccccc3c2O)=N[C@@H]1C(=O)OCc1ccccc1 (single isomer, unassigned)",≤ 0.03 µg/mL,≥ 256,> 128 µg/mL,≥ 18,9 µg/mL,–,–,–,–,–,–,–,–
CCNC(=O)[C@H]1N=C(c2ccc3ccccc3c2O)O[C@H]1C,≤ 0.03 µg/mL,≥ 128,> 128 µg/mL,≥ 128,> 128 µg/mL,–,–,–,–,–,–,–,–
OC(Cn1cncn1)(Cn1cncn1)c1ccc(F)cc1F [FLUCONAZOLE],1 µg/mL,≥ 1,> 128 µg/mL,≥ 1,> 128 µg/mL,2 µg/mL,> 0.064 µg/mL,16 µg/mL,> 64 µg/mL,–,–,–,–
"C[C@@H]1OC(c2cc(Cl)c3ccccc3c2O)=NC1C(=O)Nc1ccc2ncsc2c1 (single isomer, unassigned)",≤ 0.03 µg/mL,≥ 1070,> 128 µg/mL,≥ 133,16 µg/mL,0.06 µg/mL,2 µg/mL,0.03 µg/mL,0.06 µg/mL,Active,Active,Active,Active
CC[C@H](C)C[C@H](C)CCCCCCCCC(=O)N[C@H]1C[C@@H](O)[C@@H](NCCN)NC(=O)[C@@H]2[C@@H](O)CCN2C(=O)[C@H]([C@H](O)CCN)NC(=O)[C@H]([C@H](O)[C@@H](O)c2ccc(O)cc2)NC(=O)[C@@H]2C[C@@H](O)CN2C(=O)[C@H]([C@@H](C)O)NC1=O [CASPOFUNGIN],≤ 0.03 µg/mL,≥ 16,–,16,32 µg/mL,0.12 µg/mL,0.25 µg/mL,0.5 µg/mL,0.25 µg/mL,–,–,–,–
C[C@@H]1OC(c2cc(Cl)c3ccccc3c2O)=N[C@@H]1C(=O)OC[C@H]1COC(C)(C)O1,≤ 0.03 µg/mL,≥ 16,> 128 µg/mL,≥ 1,7.2 µg/mL,–,–,–,–,–,–,–,–
"C#CCNC(=O)C1N=C(c2cc(Cl)c3ccccc3c2O)O[C@H]1C (single isomer, unassigned)",≤ 0.03 µg/mL,≥ 512,> 128 µg/mL,≥ 132,33 µg/mL,–,–,–,–,–,–,–,–
"CCNC(=O)C1N=C(c2cc(Cl)c3ccccc3c2O)O[C@H]1C (single isomer, unassigned)",0.06 µg/mL,≥ 128,> 128 µg/mL,≥ 128,–,–,–,–,–,–,–,–,–
"C[C@@H]1OC(c2cc(Cl)c3ccccc3c2O)=NC1C(=O)OCc1ccoc1 (single isomer, unassigned)",≤ 0.03 µg/mL,≥ 32,> 128 µg/mL,≥ 2,6 µg/mL,–,–,–,–,–,–,–,–
C[C@H]1OC(c2ccc(I)cc2O)=N[C@H]1C(=O)OCc1ccccc1,≤ 0.03 µg/mL,≥ 128,> 128 µg/mL,≥ 62,62 µg/mL,–,–,–,–,–,–,–,–
C[C@H]1OC(c2cc(I)ccc2O)=N[C@H]1C(=O)OCc1ccccc1,≤ 0.03 µg/mL,≥ 128,> 128 µg/mL,≥ 64,64 µg/mL,–,–,–,–,–,–,–,–
"COC(=O)C1N=C(c2cc(Cl)c3ccccc3c2O)O[C@H]1C (single isomer, unassigned)",0.25 µg/mL,≥ 16,> 128 µg/mL,1,11 µg/mL,–,–,–,–,–,–,–,–
COc1cccc(O)c1C1=N[C@@H](C(=O)OCc2ccccc2)[C@@H](C)O1,0.12 µg/mL,≥ 8,> 128 µg/mL,6,101 µg/mL,–,–,–,–,–,–,–,–
C[C@@H](O)[C@H](NC(=O)c1ccc2ccccc2c1O)C(=O)OCc1ccccc1,8 µg/mL,> 8,> 128 µg/mL,3,40 µg/mL,–,–,–,–,–,–,–,–
C[C@@H]1OC(c2cc(Cl)c3ccccc3c2O)=N[C@@H]1C(=O)OCc1ccccc1,0.06 µg/mL,≥ 64,> 128 µg/mL,8,15 µg/mL,–,–,–,–,–,–,–,–
C[C@H]1OC(c2ccc(Br)cc2O)=N[C@H]1C(=O)OCc1ccccc1,0.06 µg/mL,≥ 128,> 128 µg/mL,62,62 µg/mL,–,–,–,–,–,–,–,–
C[C@H]1OC(c2cc(F)ccc2O)=N[C@H]1C(=O)OCc1ccccc1,≤ 0.03 µg/mL,≥ 128,> 128 µg/mL,≥ 128,> 128 µg/mL,–,–,–,–,–,–,–,–
C[C@@H]1OC(c2cc(Cl)c3ccccc3c2O)=N[C@@H]1C(=O)OC/C=C/c1ccccc1,≤ 0.03 µg/mL,≥ 8,> 128 µg/mL,≥ 1,10 µg/mL,–,–,–,–,–,–,–,–
"C=CCOC(=O)C1N=C(c2cc(Cl)c3ccccc3c2O)O[C@H]1C (single isomer, unassigned)",≤ 0.03 µg/mL,≥ 128,> 128 µg/mL,≥ 11,11 µg/mL,–,–,–,–,–,–,–,–
C[C@H]1OC(c2ccc(N=[N+]=[N-])cc2O)=N[C@H]1C(=O)OCc1ccccc1,≤ 0.03 µg/mL,≥ 128,> 128 µg/mL,≥ 100,100 µg/mL,–,–,–,–,–,–,–,–
